For the test, the target named is T1, HIV-Protease (Human immunodeficiency virus type 1 group M subtype B, UniProt P04585).
T1 construct: Max-Planck-Institut für Molekulare Genetik, Berlin
In words: HIV protease test (cleavage of heptapeptide Ser-Phe-Asn-Phe-Pro-Gln-Ile, HPLC quantification of Ser-Phe-Asn-Phe). It is filed as biochemical. Conditions: 2 h, 37°C; for activity at 100 µM / Restakt. bei 10^-4 M: residual enzyme activity at 10^-4 M inhibitor, 100 % = mean of runs without inhibitor, pH ca. 6,0, 1 % DMSO; for activity at 100 µM: read-out: Restakt. bei 10^-4 M; for IC50: cloned HIV protease, pH ca. 6,0; for Restakt. bei 10^-4 M: 100 µM. An excerpt: Als synthetisches Substrat ist ein Heptapeptid der Sequenz Ser-Phe-Asn-Phe-Pro-Gln-Ile geeignet. Diese Sequenz tritt im natürlichen Substrat der Protease auf und liefert bei der autokatalytischen Freisetzung nach einer Phe-Pro-Spaltung den N-terminalen Beginn der Proteasesequenz (Pro-Gln-Ile...).
Es wird eine klonierte HIV-Protease (Max-Planck-Institut für Molekulare Genetik, Berlin) benutzt. [drawing 5]
Von den Reaktionsprodukten wird Ser-Phe-Asn-Phe zur Abtrennung und quantitativen Bestimmung mittels HPLC herangezogen.
Nach 2 Stunden bei 37°C werden die Ansätze mit 225 µl HPLC-Elutionsmittel (s.u.) gestoppt. Etwa 150 µl des zentrifugierten Überstands (Eppendorf-Zentrifuge) werden in Mikrovials gefüllt. Das Injektionsvolumen für die HPLC-Trennung beträgt 20 µl. Ser-Phe-Asn-Phe wird durch Vergleich mit einem externen Standard bekannter Konzentration (0,5 µg/ 20 µl) quantitativ bestimmt und stellt die Meßgröße der Enzymaktivität (µg Tetrapeptid pro 20 µl Meßprobe) dar. Bezugswert (= 100 % Enzymaktivität) ist der Mittelwert aus 2 oder mehr Ansätzen ohne Inhibitor. Als Standard-Inhibitor wird Pepstatin A (10⁻⁴ oder 10⁻⁵ M) verwendet.
• a) Substratlösung: 2 mg Ser-Phe-Asn-Phe-Pro-Gln-Ile werden in 1 ml MGTE 15-Puffer gelöst. • b) Testsubstanzen: Diese werden 10⁻² oder 10⁻³ M in Dimethylsulfoxid (DMSO) gelöst und 1 : 40 mit MGTE 15-Puffer verdünnt; 10 µl dieser Lösung werden pro Ansatz verwendet; die Endkonzentration des Präparates beträgt 10⁻⁴ bzw. 10⁻⁵ M; die DMSO-Konzentration in allen Testansätzen ist 1 %. Für IC₅₀-Bestimmungen wird das Präparat, ausgehend von 10⁻² M, mit 100 % DMSO in der geeigneten Weise verdünnt. • c) Proteaselösung: Das Enzym wird mit MGTE 25-Puffer auf eine geeignete Konzentration verdünnt. • d) MGTE 15/25-Puffer 20 mM Morpholinoethansulfonsäure (MES) 15 (25) % (w/v) Glyzerin 0,1 % (v/v) Triton® X 100 (vgl. Merck Index 10, 6601) 5 mM EDTA 0,5 M NaCl 1 mM Dithiothreit (nur für MGTE 25) 1 mM Phenylmethylsulfonylfluorid (PMSF) Der pH-Wert soll ca. 6,0 betragen. • e) HPLC-Elutionsmittel: Eine 0,1 M Phosphorsäure-Lösung wird mit Triethylamin auf pH 2,5 eingestellt. Aus dieser Lösung wird ein Phosphorsäure-Acetonitril-Gemisch mit 22,6 Gewichts-Prozent Acetonitril hergestellt.
Säule: Radial Pak LC Cartridge, 8 mm/C18, 5 µ (der Fa. Waters, USA). Fluß: 1 ml/min Detektoreinstellung: 215 nm, 0,08 AU Zeit pro Analyse: 12 min; Retentionszeiten: Heptapeptid ca. 9,5 min, Tetrapeptid ca. 5,2 min Laufmittel: 77,4 Gew.-% 0,1 M H₃PO₄/pH 2,5 22,6 Gew.-% Acetonitril

In general, IC50 refers to the point on the concentration scale where inhibition reaches its midpoint. High values mean lower potency, low ones higher potency.

`CC(C)CC(NC(=O)[C@H](Cc1c[nH]cn1)NC(=O)C(Cc1cccc2ccccc12)Cc1cccc2ccccc12)B1OC(C)(C)C(C)(C)O1` (stereo partly drawn) [Beispiel 19, Bis-(1-Naphthylmethyl)acetyl-His-[3-methyl,l-(4,4,5,5-tetramethyl-1,3,2-dioxaborolan-2-yl)]butylamid]: the activity at 100 µM amounted to 37%. On to `CCC[C@H](NC(=O)[C@H](Cc1ccccc1)NC(=O)CC(C)C)C(=O)NC(CC1CCC(C)CC1)B1OC(C)(C)C(C)(C)O1` (stereo partly drawn) [Beispiel 14, Iva-Phe-Nva-[(4-Methylcyclohexyl)methyl,(4,4,5,5-tetramethyl-1,3,2-dioxaborolan-2-yl)]methylamid], for which the activity at 100 µM turned out to be 75%.

In the case of `CCC[C@H](NC(=O)[C@H](Cc1ccccc1)NC(=O)CC(C)C)C(=O)NC(Cc1cccc2ccccc12)B1OC(C)(C)C(C)(C)O1` (stereo partly drawn) [Beispiel 10, Iva-Phe-Nva-[(1-Naphthylmethyl),(4,4,5,5-tetramethyl-1,3,2-dioxaborolan-2-yl)]methylamid], the activity at 100 µM was found to be 77%.

`CC(C)CC(=O)N[C@@H](Cc1ccccc1)C(=O)N[C@@H](Cc1c[nH]cn1)C(=O)NC(CC1CCCCCCC1)B1OC(C)(C)C(C)(C)O1` (stereo partly drawn) [Beispiel 17, Iva-Phe-His-[Cyclooctylmethyl,(4,4,5,5-tetramethyl-1,3,2-dioxaborolan-2-yl)]methylamid]: half-maximal inhibition (IC50) required 200 µM and the activity at 100 µM was 52%. “(2-Benzyl,3-t-butylsulfonyl)propionyl-Nva-(Cyclopentylmethyl,dihydroxyboryl)methylamid [Beispiel 32]”: half-maximal inhibition (IC50) was put at 40 µM and the “Restakt. bei 10^-4 M” value worked out at 25%. As for “Iva-Thi-His-(Cyclohexylmethyl,dihydroxyboryl)methylamid [Beispiel 9]”, the “Restakt. bei 10^-4 M” value was determined as 93%. Turning to “(2-Benzyl,3-t-butylsulfonyl)propionyl-Val-(Cyclohexylmethyl,dihydroxyboryl)methylamid [Beispiel 28]”, the half-inhibitory concentration (IC50) is 7 µM and the “Restakt. bei 10^-4 M” value worked out at 7%. `CCCC[C@H](NC(=O)[C@H](Cc1ccccc1)NC(=O)CC(C)C)C(=O)NC(CC1CCCCC1)B1OC(C)(C)C(C)(C)O1` (stereo partly drawn) [Beispiel 2, Iva-Phe-Nle-[Cyclohexylmethyl,(4,4,5,5-tetramethyl-1,3,2-dioxaborolan-2-yl)]methylamid]: the activity at 100 µM was 74%. As to “[3-t-Butylsulfonyl,2-(2-thienylmethyl)]propionyl-Nva-(Cyclohexylmethyl,dihydroxyboryl)methylamid [Beispiel 30]”, the “Restakt. bei 10^-4 M” value is 52%. Consider `CC(C)CC(=O)N[C@@H](Cc1ccccc1)C(=O)N[C@@H](Cc1c[nH]cn1)C(=O)NC(CC1CCCCC1)B1OC(C)(C)C(C)(C)O1` (stereo partly drawn) [Beispiel 3, Iva-Phe-His-[Cyclohexylmethyl,(4,4,5,5-tetramethyl-1,3,2-dioxaborolan-2-yl)]methylamid], for which the activity at 100 µM amounted to 61%. Take `CCC[C@H](NC(=O)C(Cc1cccc2ccccc12)CS(=O)(=O)C(C)(C)C)C(=O)NC(CC1CCCC1)B1OC(C)(C)C(C)(C)O1` (some centres unmarked) [Beispiel 47, [3-t-Butylsulfonyl,2-(1-naphthylmethyl)]propionyl-Nva-[Cyclopentylmethyl,(4,4,5,5-tetramethyl-1,3,2-dioxaborolan-2-yl)]methylamid]: the midpoint of inhibition, the IC50, lay at 10 µM and the activity at 100 µM turned out to be 16%. In the case of “[3-t-Butylsulfonyl,2-(2-thienylmethyl)]propionyl-Thi-(Cycloheptylmethyl,dihydroxyboryl)methylamid [Beispiel 33]”, the “Restakt. bei 10^-4 M” value was determined as 61%. On the same count and under the same terms, the result for “Iva-Phe-His-(Cyclooctylmethyl,dihydroxyboryl)methylamid [Beispiel 24]” reads 78%.

The values above are taken from patent publication EP0354522A1, “Use of alpha-aminoboronic acid derivatives in prevention and treatement of viral diseases” (HOECHST AKTIENGESELLSCHAFT, priority 1988, dated 1990).
